Experiment: mn = molality of the nth substance listed, in mol/kg
Conditions: for surface tension liquid-gas: Pendant drop shape; for electrical conductivity: Liquid, Digital conductivity meter

CCCCCCCCCCCCCC[N+](C)(CCO)CCO.[Br-] [N,N-bis(2-hydroxyethyl)-N-methyltetradecanaminium bromide] + O
Conditions | electrical conductivity [S/m] | surface tension liquid-gas [mN/m]
298.15 K, m1 = 0.0003 | – | 64.43
298.15 K, m1 = 0.00061 | – | 59.09
298.15 K, m1 = 0.00081 | – | 56.14
298.15 K, m1 = 0.00102 | – | 54.31
298.15 K, m1 = 0.00152 | – | 48.51
298.15 K, m1 = 0.00203 | – | 44.69
298.15 K, m1 = 0.00254 | – | 40.4
298.15 K, m1 = 0.0026 | 0.021 | –
298.15 K, m1 = 0.0027 | 0.0218 | –
298.15 K, m1 = 0.0028 | 0.0226 | –
298.15 K, m1 = 0.00292 | 0.0235 | –
298.15 K, m1 = 0.00305 | 0.0242 | 38.3
298.15 K, m1 = 0.00319 | 0.025 | –
298.15 K, m1 = 0.00334 | 0.0255 | –
298.15 K, m1 = 0.00351 | 0.0259 | –
298.15 K, m1 = 0.00369 | 0.0262 | –
298.15 K, m1 = 0.0039 | 0.0267 | –
298.15 K, m1 = 0.00412 | 0.0272 | –
298.15 K, m1 = 0.00438 | 0.0277 | –
298.15 K, m1 = 0.00467 | 0.0283 | 38.31
298.15 K, m1 = 0.00501 | 0.0289 | –
298.15 K, m1 = 0.00508 | – | 38.46
298.15 K, m1 = 0.00539 | 0.0298 | –
298.15 K, m1 = 0.00584 | 0.0306 | –
298.15 K, m1 = 0.00609 | – | 38.23
298.15 K, m1 = 0.00637 | 0.0317 | –
298.15 K, m1 = 0.00812 | – | 38.23
303.15 K, m1 = 0.00259 | 0.0232 | –
303.15 K, m1 = 0.00269 | 0.024 | –
303.15 K, m1 = 0.0028 | 0.025 | –
303.15 K, m1 = 0.00292 | 0.0257 | –
303.15 K, m1 = 0.00304 | 0.0268 | –
303.15 K, m1 = 0.00318 | 0.0278 | –
303.15 K, m1 = 0.00333 | 0.0282 | –
303.15 K, m1 = 0.0035 | 0.029 | –
303.15 K, m1 = 0.00369 | 0.0295 | –
303.15 K, m1 = 0.00389 | 0.03 | –
303.15 K, m1 = 0.00412 | 0.0305 | –
303.15 K, m1 = 0.00438 | 0.0311 | –
303.15 K, m1 = 0.00467 | 0.0318 | –
303.15 K, m1 = 0.005 | 0.0325 | –
303.15 K, m1 = 0.00539 | 0.0334 | –
303.15 K, m1 = 0.00584 | 0.0343 | –
303.15 K, m1 = 0.00637 | 0.0356 | –
308.15 K, m1 = 0.00259 | 0.0256 | –
308.15 K, m1 = 0.00269 | 0.0264 | –
308.15 K, m1 = 0.0028 | 0.0274 | –
308.15 K, m1 = 0.00291 | 0.0285 | –
308.15 K, m1 = 0.00304 | 0.0297 | –
308.15 K, m1 = 0.00318 | 0.0309 | –
308.15 K, m1 = 0.00333 | 0.0318 | –
308.15 K, m1 = 0.0035 | 0.0325 | –
308.15 K, m1 = 0.00368 | 0.0331 | –
308.15 K, m1 = 0.00388 | 0.0336 | –
308.15 K, m1 = 0.00411 | 0.0342 | –
308.15 K, m1 = 0.00437 | 0.0349 | –
308.15 K, m1 = 0.00466 | 0.0357 | –
308.15 K, m1 = 0.00499 | 0.0367 | –
308.15 K, m1 = 0.00538 | 0.0376 | –
308.15 K, m1 = 0.00583 | 0.0387 | –
308.15 K, m1 = 0.00636 | 0.0401 | –
313.15 K, m1 = 0.00258 | 0.028 | –
313.15 K, m1 = 0.00268 | 0.0291 | –
313.15 K, m1 = 0.00279 | 0.0303 | –
313.15 K, m1 = 0.00291 | 0.0314 | –
313.15 K, m1 = 0.00303 | 0.0327 | –
313.15 K, m1 = 0.00317 | 0.0341 | –
313.15 K, m1 = 0.00332 | 0.0353 | –
313.15 K, m1 = 0.00349 | 0.0364 | –
313.15 K, m1 = 0.00367 | 0.0373 | –
313.15 K, m1 = 0.00388 | 0.038 | –
313.15 K, m1 = 0.0041 | 0.0386 | –
313.15 K, m1 = 0.00436 | 0.0396 | –
313.15 K, m1 = 0.00465 | 0.0403 | –
313.15 K, m1 = 0.00498 | 0.0411 | –
313.15 K, m1 = 0.00537 | 0.0424 | –
313.15 K, m1 = 0.00582 | 0.0437 | –
313.15 K, m1 = 0.00634 | 0.0453 | –
318.15 K, m1 = 0.00258 | 0.0307 | –
318.15 K, m1 = 0.00268 | 0.0318 | –
318.15 K, m1 = 0.00279 | 0.033 | –
318.15 K, m1 = 0.0029 | 0.0344 | –
318.15 K, m1 = 0.00303 | 0.0355 | –
318.15 K, m1 = 0.00317 | 0.0372 | –
318.15 K, m1 = 0.00332 | 0.0389 | –
318.15 K, m1 = 0.00348 | 0.0407 | –
318.15 K, m1 = 0.00367 | 0.0413 | –
318.15 K, m1 = 0.00387 | 0.0425 | –
318.15 K, m1 = 0.0041 | 0.0436 | –
318.15 K, m1 = 0.00435 | 0.0446 | –
318.15 K, m1 = 0.00464 | 0.0455 | –
318.15 K, m1 = 0.00497 | 0.0467 | –
318.15 K, m1 = 0.00536 | 0.0478 | –
318.15 K, m1 = 0.0058 | 0.0494 | –
318.15 K, m1 = 0.00633 | 0.0511 | –
323.15 K, m1 = 0.00257 | 0.0334 | –
323.15 K, m1 = 0.00267 | 0.0347 | –
323.15 K, m1 = 0.00278 | 0.0359 | –
323.15 K, m1 = 0.0029 | 0.0374 | –
323.15 K, m1 = 0.00302 | 0.0388 | –
323.15 K, m1 = 0.00316 | 0.0406 | –
323.15 K, m1 = 0.00331 | 0.0424 | –
323.15 K, m1 = 0.00347 | 0.0444 | –
323.15 K, m1 = 0.00366 | 0.0464 | –
323.15 K, m1 = 0.00386 | 0.0477 | –
323.15 K, m1 = 0.00409 | 0.049 | –
323.15 K, m1 = 0.00434 | 0.0502 | –
323.15 K, m1 = 0.00463 | 0.0514 | –
323.15 K, m1 = 0.00496 | 0.0526 | –
323.15 K, m1 = 0.00535 | 0.054 | –
323.15 K, m1 = 0.00579 | 0.0559 | –
323.15 K, m1 = 0.00632 | 0.0577 | –
